In patent US9066977B2, “Method of utilization of combination of benzophenone derivative or salt thereof and immunosuppressing agent, and pharmaceutical composition comprising these components” (TOYAMA CHEMICAL CO., LTD., priority 2008, dated 2015):

How the values were obtained:
[1] = test system: mouse type II collagen-induced arthritis; test: Combined use of compound A and methotrexate on mouse type II collagen-induced arthritis (Test Example 1); format: in vivo; conditions: male DBA/1J mice, day following final administration
Experimental: Eight-week-old male DBA/1J mice (9 or 10 mice per group; Charles River Laboratories Japan) were used. A 2 mg/mL bovine type II collagen dissolved in a 0.1 mol/L acetic acid solution (Koken Co., Ltd.) was mixed with an equal volume of Freund's complete adjuvant (BD Diagnostic Systems) to prepare an emulsion. The emulsion (0.2 mL) was intradermally injected at the hip of each mouse. Twenty-one days after the primary immunization, the same treatment was carried out (secondary immunization), so that type II collagen arthritis was induced.
Compound A was dissolved in a 2-fold molar amount of sodium hydroxide solution, and a 3-fold weight of polyvinylpyrrolidone was then added to the solution, followed by dilution with distilled water. The concentration of compound A in a compound A (1 mg/kg)-dosing solution was adjusted to be 0.1 mg/mL. Methotrexate was suspended in 0.5% methylcellulose solution. The concentration of methotrexate in methotrexate (0.5 mg/kg)-dosing solution was adjusted to be 0.05 mg/mL. Each dosing solution was orally administered to the mice.
To control group, polyvinylpyrrolidone solution and 0.5% methylcellulose solution were orally administered. […]
The knuckle portion and the articulations of wrist and tarsus portions of the four paws of each mouse were evaluated using the following 4 scores. […]

[2] = test system: mouse type II collagen-induced arthritis; test: Combined use of compound A and dexamethasone on mouse type II collagen-induced arthritis (Test Example 2); format: in vivo; conditions: male DBA/1J mice, day following final administration
Experimental: Eight-week-old male DBA/1J mice (8-10 mice per group; Charles River Laboratories Japan) were used. The induction of mouse type II collagen arthritis was conducted by the method according to Test Example 1.
Compound A was dissolved in a 2-fold molar amount of sodium hydroxide solution, and a 3-fold weight of polyvinylpyrrolidone was then added to the solution, followed by dilution with distilled water. The concentrations of compound A in compound A (1 mg/kg and 10 mg/kg)-dosing solutions were adjusted to be 0.1 mg/mL and 1.0 mg/mL. The concentration of compound A in a compound A (1 mg/kg)-dosing solution in combined administration was adjusted to be 0.2 mg/mL. Dexamethasone was suspended in polyvinylpyrrolidone solution. The concentration of dexamethasone in dexamethasone (0.025 mg/kg)-dosing solution was adjusted to be 0.0025 mg/mL. The concentration of dexamethasone in dexamethasone (0.025 mg/kg)-dosing solution in combined administration was adjusted to be 0.005 mg/mL. Each dosing solution was orally administered to the mice.
To control group, polyvinylpyrrolidone solution was orally administered.
After dividing into groups, and the second immunization, compound A and dexamethasone were administered once a day for 14 days.
The evaluation to mouse arthritis was conducted by the method according to Test Example 1.

[3] = Compound A 1 mg/kg orally once a day for 14 days

O=C(O)CCc1cc(C(=O)c2ccc(OC3CCCC3)cc2O)ccc1OCc1ccc2c(O)noc2c1 [Compound A, 3-(5-(4-(cyclopentyloxy)-2-hydroxybenzoyl)-2-((3-hydroxy-1,2-benzisoxazol-6-yl)methoxy)phenyl)propionic acid]
Arthritis inhibition rate (%) [1, 3]: 19%
Arthritis inhibition rate (%) [2, 3]: 14%
Arthritis inhibition rate (%) ([2]; Compound A 10 mg/kg orally once a day for 14 days): 58%

C[C@@H]1C[C@H]2[C@@H]3CCC4=CC(=O)C=C[C@]4(C)[C@@]3(F)[C@@H](O)C[C@]2(C)[C@@]1(O)C(=O)CO [Dexamethasone, reference compound]
Arthritis inhibition rate (%) ([2]; Dexamethasone 0.025 mg/kg orally once a day for 14 days): 30%

CN(Cc1cnc2nc(N)nc(N)c2n1)c1ccc(C(=O)N[C@@H](CCC(=O)O)C(=O)O)cc1 [Methotrexate, reference compound]
Arthritis inhibition rate (%) ([1]; Methotrexate 0.5 mg/kg orally once a day for 14 days): 15%
